Results from ChEMBL document CHEMBL1130461, “Polyclonal catalytic antibody for hetero-cycloaddition of hepta-1,3-diene with ethyl glyoxylate an approach to the synthesis of 2-nonulosonic acid analogs” (Bioorg Med Chem Lett, 1997).

Tests used:
[1] = Michaelis-Menten constant in polyclonal antibody reactions; assay type: ADME
[2] = Vmax in polyclonal antibody reactions; assay type: ADME

A Km [1] of 96 µM and a Vmax [2] of 0.98 µM/min were found for `C=C/C=C/CCOC(=O)CCC(=O)OCc1ccccc1` in this work.
